Where two headings read alike, the source gives them in different places.
How the values were obtained:
Td2F2 [1] = experiment: fluorescence plate reader, Michaelis-Menten fit; format: biochemical, uncultured bacterium; details: 10 mM HEPES pH 7.4
Td2F2 [2] = details: 10 mM HEPES pH 7.4; Mutant A
β-galactosidase (LacZ) = β-galactosidase (LacZ) (Escherichia coli, UniProt P00722); experiment: fluorescence plate reader, Michaelis-Menten fit; format: biochemical; details: 10 mM HEPES pH 7.4
Sequence of β-galactosidase (LacZ) (P00722 2-1024): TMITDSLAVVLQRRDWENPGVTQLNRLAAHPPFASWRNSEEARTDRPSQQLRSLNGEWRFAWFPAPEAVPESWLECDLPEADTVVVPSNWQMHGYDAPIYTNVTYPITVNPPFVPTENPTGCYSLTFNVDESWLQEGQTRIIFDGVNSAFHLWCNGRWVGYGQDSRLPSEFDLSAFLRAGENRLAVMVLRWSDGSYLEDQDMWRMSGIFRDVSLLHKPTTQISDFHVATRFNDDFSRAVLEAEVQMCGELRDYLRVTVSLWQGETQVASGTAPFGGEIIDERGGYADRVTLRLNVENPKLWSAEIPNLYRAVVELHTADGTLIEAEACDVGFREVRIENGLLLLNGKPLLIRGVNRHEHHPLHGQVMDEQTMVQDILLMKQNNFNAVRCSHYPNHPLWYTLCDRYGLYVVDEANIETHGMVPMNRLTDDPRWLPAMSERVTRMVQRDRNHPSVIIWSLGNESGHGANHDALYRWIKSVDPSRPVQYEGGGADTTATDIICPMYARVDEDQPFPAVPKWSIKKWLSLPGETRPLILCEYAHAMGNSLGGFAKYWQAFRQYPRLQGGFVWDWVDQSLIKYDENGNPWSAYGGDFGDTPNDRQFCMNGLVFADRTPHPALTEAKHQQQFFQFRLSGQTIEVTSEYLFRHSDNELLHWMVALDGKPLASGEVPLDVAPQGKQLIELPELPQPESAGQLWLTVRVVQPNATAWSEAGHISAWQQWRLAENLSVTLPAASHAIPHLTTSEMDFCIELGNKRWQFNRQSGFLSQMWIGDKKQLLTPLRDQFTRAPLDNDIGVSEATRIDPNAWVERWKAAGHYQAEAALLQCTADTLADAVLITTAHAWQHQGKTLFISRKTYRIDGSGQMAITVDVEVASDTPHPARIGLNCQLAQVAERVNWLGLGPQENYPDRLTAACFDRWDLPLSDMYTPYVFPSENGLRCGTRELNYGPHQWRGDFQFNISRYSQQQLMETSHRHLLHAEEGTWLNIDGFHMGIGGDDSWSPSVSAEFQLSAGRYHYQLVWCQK

Row | Km (β-galactosidase (LacZ)) | SMILES | Km (Td2F2 [1]) | Km (Td2F2 [2])
1 |  | C[C@H]1O[C@@H](Oc2ccc3c(c2)Oc2cc(NCC(F)(F)F)ccc2C32OCc3ccccc32)[C@H](O)[C@@H](O)[C@H]1O (stereo partly drawn) [HMRef-β-D-Fuc, HMRef-β-D-fucose] | 190 µM | 3.7 µM
2 | 73 µM | OC[C@H]1O[C@@H](Oc2ccc3c(c2)Oc2cc(NCC(F)(F)F)ccc2C32OCc3ccccc32)[C@H](O)[C@@H](O)[C@H]1O (stereo partly drawn) [HMRef-β-D-Gal] |  | 

Reference: article doi:10.1101/2025.03.04.641560v1 (biorxiv, 2025)
